Assay results from patent US20240124404A1, “COMPOSITION FOR TREATING DISEASES RELATED TO ADVANCED GLYCATION END PRODUCTS COMPRISING INDOLE DERIVATIVE” (METACEN THERAPEUTICS, priority 2021, published 2024).
Read-outs that look alike come from different tables or passages of the source.

How the values were obtained:
[1] = Methylglyoxal (MGO) trapping ability: fluorescence intensity of reaction product; type: biochemical; conditions: compound 1.0 mM in MGO+PBS pH 7.4, 37° C., 1 day; ex 355 nm / em 460 nm; 10×10^3 or more = trapping ability
Experimental: Methylglyoxal (MGO) is a main precursor of advanced glycation end products that cause complications due to diabetes mellitus. Successful trapping of methylglyoxal (MGO) can inhibit the production of advanced glycation end products.
A mixture was prepared by adding methylglyoxal (MGO) to phosphate buffered saline (PBS, Cat no. 10010023, pH 7.4). […] The fluorescence intensity of the reaction product was measured at an excitation wavelength of 355 nm and an emission wavelength of 460 nm using a VICTOR™X3 multilabel plate reader.
The higher the fluorescence intensity measured from the reaction product, the higher the ability of the compound to trap methylglyoxal. In addition, in this experimental example, when the fluorescence intensity was 10×10^3 or more, it was determined that the compound had the ability to trap methylglyoxal.

[2] = Methylglyoxal (MGO) trapping ability: free MGO concentration by HPLC; type: biochemical; conditions: compound 1:1 with MGO in PBS pH 7.4, 37° C.; for MGO concentration on day 7: MGO + PBS control 436.38; for MGO concentration on day 1: MGO + PBS control 499.53
Experimental: Specifically, a mixture was prepared by adding methylglyoxal (MGO) to phosphate buffered saline (PBS, Cat no. 10010023, pH 7.4). The compound of the present invention was added to the mixture (MGO+PBS) at a concentration of 1:1 with methylglyoxal (MGO) and reacted, and then cultured at 37° C. for 1 day.

N2a cells = experiment: Protection against MGO-induced cytotoxicity in N2a cell line (MTT); conditions: Mus musculus
Experimental: Specifically, N2a cells were dispensed at 2×10^4 cells/well in a 96 well plate. Each cell line was pre-/post-treated with the compound of the present invention at a concentration of 500 nM or aminoguanidine (AG) at a concentration of 1 mM for 1 hour, and then pre-/post-treated with 500 μM MGO, and cultured for 24 hours. The medium was removed and then treated with 0.5 mg/ml 3-(4,5-dimethylthiazol-2-yl)-2,5-diphenyltetrazolium bromide (MTT) solution for 1 hour, and the reduced formazan was dissolved in 150 μl of DMSO, and the cell viability was measured by a microspectrophotometer at a wavelength of 570 nm.

SH-SY5Y cells = experiment: Protection against MGO-induced cytotoxicity in SH-SY5Y cell line (MTT); conditions: Homo sapiens
Experimental: Specifically, SH-SY5Y cells were dispensed at 2×10^4 cells/well in a 96 well plate. Each cell line was pre-/post-treated with the compound of the present invention at a concentration of 500 nM or aminoguanidine (AG) at a concentration of 1 mM for 1 hour, and then pre-/post-treated with 500 μM MGO, and cultured for 24 hours. The medium was removed and then treated with 0.5 mg/ml 3-(4,5-dimethylthiazol-2-yl)-2,5-diphenyltetrazolium bromide (MTT) solution for 1 hour, and the reduced formazan was dissolved in 150 μl of DMSO, and the cell viability was measured by a microspectrophotometer at a wavelength of 570 nm.

[3] = 24 h, read-out: Cell viability, Post-treatment
[4] = read-out: Cell viability, Pre-treatment

Row | SMILES | Fluorescence intensity on day 1 (×10^3) [1] | MGO concentration on day 7 [2] | MGO concentration on day 1 [2] | viability at 1000 µM (N2a cells; [3]) | viability at 1000 µM (N2a cells; [4]) | viability at 1000 µM (SH-SY5Y cells; [3]) | viability at 1000 µM (SH-SY5Y cells; [4])
1 | NCC(N)Cc1c[nH]c2ccc(O)cc12 (stereo not shown) [Compound 30, 3-(2,3-diaminopropyl)-1H-indol-5-ol] | 156.92 ± 1.22 ×10^3 | 16.43 µM | 235.58 µM | – | – | – | –
2 | N[C@H](CO)Cc1c[nH]c2ccc(O)cc12 [Compound 29, (S)-3-(2-amino-3-hydroxypropyl)-1H-indol-5-ol (L-tryptophanol)] | 362.50 ± 17.85 ×10^3 | 0 µM | 18.56 µM | – | – | – | –
3 | N#CC(N)Cc1c[nH]c2ccc(O)cc12 (stereo not shown) [Compound 31, 2-amino-3-(5-hydroxy-1H indol-3-yl)propanenitrile] | 14.58 ± 0.34 ×10^3 | 0 µM | 7.30 µM | – | – | – | –
4 | N=C(N)NN [AG, aminoguanidine] | – | – | – | 102 ± 11.9% | 111 ± 9.32% | 52.01 ± 0.24% | 84.7 ± 1.75%
